Here are results for two substances from article PMC12002301, “Discovery and functional characterization of a bombesin-type neuropeptide signaling system in an invertebrate” (Proceedings of the National Academy of Sciences of the …, 2025).

The experiment deals with ArBNR2(G272). Briefly: Luminescence (GFP-aequorin Ca2+) assay, CHO-K1 cells coexpressing ArBNR2(G272) and Gqs5. It counts as cell-based, Asterias rubens. The following applies: words, up to 10^-5 M. The source says:
Having identified ArBN and ArBN5-14 as peptides that are naturally derived from ArBNP in A. rubens, we then sought to identify receptors that these peptides may act as ligands for. BLAST analysis of transcriptome/genome data identified eleven candidate BN-type receptors, which we refer to as ArBNR1-11. Homologs of this family of proteins were also identified in other echinoderms. […] Accordingly, a modified form of ArBNR2 in which the glutamate residue at position 272 is substituted with glycine, ArBNR2(G272), also has seven predicted transmembrane domains (SI Appendix, SI Methods). […]
domains and other structural features (9). The topology of […] of the potential A. rubens BN-type receptors as predicted by Protter V1.0 comprised seven transmembrane domains, as expected for a GPCR. However, the topology of the proteins encoded by contig 1110162 and contig 1110464 comprised only six and four transmembrane domains, respectively. Analysis of the transcript […]
To determine the complete open reading frame of ArBNR2, contig 1110162 was used as a query for blastx analysis of A. rubens genome sequence data on NCBI and accession no. […] The protein (XP_033631283.1 referred to henceforth as ArBNR2) was analysed using […]
Having discovered that MgBNR2 has the expected topology for a GPCR when analysed using both Protter and DeepTMHMM, we then compared its sequence to ArBNR2. […]

Regarding “EPMPSSLALYIANLSP-NH2 [ArBNP65-81, C-terminally amidated 16-residue peptide predicted to be derived from residues 65 to 81 of ArBNP]”, the peptide-induced luminescence result is given as “did not trigger luminescence”.
In the case of “NYNRVFGPTY-NH2 [ArBN5-14, C-terminally amidated 10-residue peptide corresponding to the C-terminal region of ArBN]” it was “did not trigger luminescence”.
